Reference: ChEMBL document CHEMBL1153834, “Orally administered combined regimens for treatment of Mycobacterium ulcerans infection in mice” (2007)
≈ marks a conversion by molar mass, not a printed value. Calls of active or inactive are those of the source. The calls are words filed in the database; no cut-off is given here.

Experiments:
Mycobacterium ulcerans [1] = experiment: Antimycobacterial activity against Mycobacterium ulcerans isolate CU001; assay type: functional
Mycobacterium ulcerans [2] = experiment: Antimycobacterial activity against Mycobacterium ulcerans isolate CU001 infected in BALB/c mouse left hind foot-pad assessed as bacterial load per culture-positive foot-pad at 10 mg/kg, po administered for 5 days per week measured after 4 weeks; assay type: functional
Mycobacterium ulcerans [3] = experiment: Antimycobacterial activity against Mycobacterium ulcerans isolate CU001 infected in BALB/c mouse left hind foot-pad assessed as bacterial load at 10 mg/kg, po administered for 5 days per week measured after 4 weeks; assay type: functional
Mycobacterium ulcerans [4] = experiment: Antimycobacterial activity against Mycobacterium ulcerans isolate CU001 infected in BALB/c mouse left hind foot-pad assessed as incidence of bacterial infection at 10 mg/kg, po administered for 5 days per week measured after 8 weeks; assay type: functional, organism-based; design: dose 10 mg/kg
Mycobacterium ulcerans [5] = experiment: Antimycobacterial activity against Mycobacterium ulcerans isolate CU001 infected in BALB/c mouse left hind foot-pad assessed as bacterial load at 10 mg/kg, po administered for 5 days per week measured after 8 weeks; assay type: functional, organism-based; design: dose 10 mg/kg
Mycobacterium ulcerans [6] = experiment: Antimycobacterial activity against Mycobacterium ulcerans isolate CU001 infected in BALB/c mouse left hind foot-pad assessed as bacterial load per culture-positive foot-pad at 100 mg/kg, po administered for 5 days per week measured after 4 weeks; assay type: functional
Mycobacterium ulcerans [7] = experiment: Antimycobacterial activity against Mycobacterium ulcerans isolate CU001 infected in BALB/c mouse left hind foot-pad assessed as bacterial load at 100 mg/kg, po administered for 5 days per week measured after 4 weeks; assay type: functional
Mycobacterium ulcerans [8] = experiment: Antimycobacterial activity against Mycobacterium ulcerans isolate CU001 infected in BALB/c mouse left hind foot-pad assessed as incidence of bacterial infection at 100 mg/kg, po administered for 5 days per week measured after 8 weeks; assay type: functional, organism-based; design: dose 100 mg/kg
Mycobacterium ulcerans [9] = experiment: Antimycobacterial activity against Mycobacterium ulcerans isolate CU001 infected in BALB/c mouse left hind foot-pad assessed as bacterial load at 100 mg/kg, po administered for 5 days per week measured after 8 weeks; assay type: functional
Mycobacterium ulcerans [10] = experiment: Antimycobacterial activity against Mycobacterium ulcerans isolate CU001 infected in BALB/c mouse left hind foot-pad assessed as bacterial load per culture-positive foot-pad at 10 mg/kg, po administered for 5 days per week measured after 8 weeks; assay type: functional

Question: Which MIC (Mycobacterium ulcerans [1]) does the source give for `CO[C@H]1/C=C/O[C@@]2(C)Oc3c(C)c(O)c4c(O)c(c(/C=N/N5CCN(C)CC5)c(O)c4c3C2=O)NC(=O)/C(C)=C\C=C\[C@H](C)[C@H](O)[C@@H](C)[C@@H](O)[C@@H](C)[C@H](OC(C)=O)[C@@H]1C` [RIFAMPIN] here?
Answer: 2 µg/mL (≈ 2.43 µM)

Question: What about the log10cfu (Mycobacterium ulcerans [2]) of the same compound?
Answer: 1.52

Question: And the log10cfu (Mycobacterium ulcerans [3])?
Answer: 0.46

Question: What about the Activity (Mycobacterium ulcerans [4]) of the same compound?
Answer: Active

Question: And the Activity (Mycobacterium ulcerans [5])?
Answer: Active

Question: What does the source list for `CC[C@H]1OC(=O)[C@H](C)[C@@H](O[C@H]2C[C@@](C)(OC)[C@@H](O)[C@H](C)O2)[C@H](C)[C@@H](O[C@@H]2O[C@H](C)C[C@H](N(C)C)[C@H]2O)[C@](C)(OC)C[C@@H](C)C(=O)[C@H](C)[C@@H](O)[C@]1(C)O` [CLARITHROMYCIN]?
Answer: MIC (Mycobacterium ulcerans [1]): 0.5 µg/mL (≈ 0.668 µM); log10cfu (Mycobacterium ulcerans [6]): 3.43; log10cfu (Mycobacterium ulcerans [7]): 2.53; Activity (Mycobacterium ulcerans [8]): Active; log10cfu (Mycobacterium ulcerans [9]): 1.25

Question: With `COc1c(N2C[C@@H]3CCCN[C@@H]3C2)c(F)cc2c(=O)c(C(=O)O)cn(C3CC3)c12` [MOXIFLOXACIN] as the compound, how does the MIC (Mycobacterium ulcerans [1]) read?
Answer: 0.25 µg/mL (≈ 0.623 µM)

Question: What about the log10cfu (Mycobacterium ulcerans [6]) of the same compound?
Answer: 3.23

Question: And the log10cfu (Mycobacterium ulcerans [10])?
Answer: 1.72

Question: What about the log10cfu (Mycobacterium ulcerans [7]) of the same compound?
Answer: 2.99

Question: And the log10cfu (Mycobacterium ulcerans [9])?
Answer: 1.25

Question: How did the MIC (Mycobacterium ulcerans [1]) turn out when `CN[C@@H]1[C@H](O[C@H]2[C@H](O[C@H]3[C@H](O)[C@@H](O)[C@H](N=C(N)N)[C@@H](O)[C@@H]3N=C(N)N)O[C@@H](C)[C@]2(O)C=O)O[C@@H](CO)[C@H](O)[C@H]1O` [STREPTOMYCIN] was run?
Answer: 0.5 µg/mL (≈ 0.86 µM)
